Laboratory results: PubChem BioAssay AID328 (DTP/NCI, 2004)
Values joined by “and” are separate entries in the source; they are usually repeats but may differ in a detail not shown here. Identical values can stand only once. Inconclusive results and toxic doses are left out.

Tested on: BDF1 mice, P388 leukemia ip, median survival T/C
Experiment: NCI In Vivo Anticancer Drug Screen. Data for tumor model P388 Leukemia (intraperitoneal) in B6D2F1 (BDF1) mice
Settings: endpoint: median survival time, higher = longer survival
How it was run: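 Reported as T/C, where T is the survival measurement in dosed animals and C the same measurement in vehicle controls.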

[1] = dose: 50.0 mg/kg/injection, schedule: Q04DX003 (ip), vehicle: water
[2] = dose: 100.0 mg/kg/injection, schedule: Q04DX003 (ip), vehicle: saline with Tween-80
[3] = dose: 200.0 mg/kg/injection, schedule: Q01DX009 (ip), vehicle: saline with Tween-80
[4] = dose: 200.0 mg/kg/injection, schedule: Q04DX003 (ip), vehicle: saline with Tween-80
[5] = dose: 400.0 mg/kg/injection, schedule: Q04DX003 (ip), vehicle: saline with Tween-80
[6] = dose: 50.0 mg/kg/injection, schedule: Q01DX009 (ip), vehicle: saline with Tween-80
[7] = dose: 100.0 mg/kg/injection, schedule: Q01DX009 (ip), vehicle: saline with Tween-80
[8] = dose: 25.0 mg/kg/injection, schedule: Q01DX009 (ip), vehicle: saline with Tween-80
[9] = dose: 25.0 mg/kg/injection, schedule: Q04DX003 (ip), vehicle: Klucel (hydroxypropylcellulose) (HPC)
[10] = dose: 12.5 mg/kg/injection, schedule: Q04DX003 (ip), vehicle: saline with Tween-80
[11] = dose: 50.0 mg/kg/injection, schedule: Q04DX003 (ip), vehicle: saline with Tween-80
[12] = dose: 50.0 mg/kg/injection, schedule: Q04DX003 (ip), vehicle: saline

## O=C1C2C(C(=O)N1c1ccc(OCc3ccccc3)cc1)C1c3ccccc3C2C2CCCCN21 (stereo not drawn)
dose: 3.13 mg/kg/injection, schedule: Q04DX003 (ip), vehicle: water
  T/C: 93 % of control
dose: 6.25 mg/kg/injection, schedule: Q04DX003 (ip), vehicle: water
  T/C: 101 % of control
dose: 12.5 mg/kg/injection, schedule: Q04DX003 (ip), vehicle: water
  T/C: 97 % of control
dose: 25.0 mg/kg/injection, schedule: Q04DX003 (ip), vehicle: water
  T/C: 101 % of control
[1]
  T/C: 99 % of control

## O=[N+]([O-])c1ccccc1CSc1ncnc2nc[nH]c12
[2]
  T/C: 100 % of control
dose: 132.0 mg/kg/injection, schedule: Q01DX009 (ip), vehicle: saline with Tween-80
  T/C: 104 % of control
[3]
  T/C: 100 % of control
[4]
  T/C: 108 % of control
dose: 300.0 mg/kg/injection, schedule: Q01DX009 (ip), vehicle: saline with Tween-80
  T/C: 86 % of control
[5]
  T/C: 116 % of control

## Cc1ccc(S(=O)CC(Cl)c2ccccc2)cc1 (stereo not drawn)
dose: 50.0 mg/kg/injection, schedule: Q01DX009 (ip), vehicle: other
  T/C: 105 % of control
dose: 100.0 mg/kg/injection, schedule: Q01DX009 (ip), vehicle: other
  T/C: 106 % of control
dose: 200.0 mg/kg/injection, schedule: Q01DX009 (ip), vehicle: other
  T/C: 100 % of control

## CC1(C)CC(=O)C(C(c2cccc(O)c2O)C2C(=O)CC(C)(C)CC2=O)C(=O)C1
[6]
  T/C: 123 % of control
[7]
  T/C: 100 % of control
[3]
  T/C: 91 % of control

## [N-]=[N+]=NC(=O)c1ccccn1
[8]
  T/C: 101 % of control

## CCOC(=O)c1c(OC(C)=O)cc2c(c1OC(C)=O)-c1ccccc1CC2
[2]
  T/C: 90 % of control
[4]
  T/C: 97 % of control
[5]
  T/C: 99 % of control

## COC(=O)C(CSCSCc1ccccc1)NC(=O)C(CSCc1ccccc1)NC(=O)CCNC(=O)OCc1ccccc1 (stereo not drawn)
dose: 1.56 mg/kg/injection, schedule: Q04DX003 (ip), vehicle: Klucel (hydroxypropylcellulose) (HPC)
  T/C: 101 % of control
dose: 3.13 mg/kg/injection, schedule: Q04DX003 (ip), vehicle: Klucel (hydroxypropylcellulose) (HPC)
  T/C: 120 % of control
dose: 12.5 mg/kg/injection, schedule: Q04DX003 (ip), vehicle: Klucel (hydroxypropylcellulose) (HPC)
  T/C: 101 % of control
[9]
  T/C: 111 % of control

## CCOC(CCC#N)c1ccccc1 (stereo not drawn)
dose: 266.0 mg/kg/injection, schedule: Q04DX003 (ip), vehicle: saline with Tween-80
  T/C: 114 % of control
[5]
  T/C: 114 % of control
dose: 600.0 mg/kg/injection, schedule: Q04DX003 (ip), vehicle: saline with Tween-80
  T/C: 119 % of control

## COc1ccc(C2(C#N)CCCC2)cc1
[7]
  T/C: 100 % of control
[3]
  T/C: 108 % of control
dose: 400.0 mg/kg/injection, schedule: Q01DX009 (ip), vehicle: saline with Tween-80
  T/C: 108 % of control

## CCOC(=O)C(Cc1ccc(N(CCCl)CCCl)cc1)NC(=O)C(Cc1ccccc1)NC=O (stereo not drawn)
[10]
  T/C: 118 % of control
[6]
  T/C: 168 % of control
[11]
  T/C: 172 % of control
[7]
  T/C: 90 % of control
dose: 132.0 mg/kg/injection, schedule: Q04DX003 (ip), vehicle: saline with Tween-80
  T/C: 227 % of control
dose: 133.0 mg/kg/injection, schedule: Q04DX003 (ip), vehicle: saline with Tween-80
  T/C: 200 % of control
[4]
  T/C: 254 % of control and 215 % of control

## NC(N)=Nc1ccc(C(=O)Oc2c(Cl)cc([N+](=O)[O-])cc2Cl)cc1
dose: 0.18 mg/kg/injection, schedule: Q01DX009 (ip), vehicle: saline
  T/C: 94 % of control
dose: 0.39 mg/kg/injection, schedule: Q01DX009 (ip), vehicle: saline
  T/C: 92 % of control
dose: 0.78 mg/kg/injection, schedule: Q01DX009 (ip), vehicle: saline
  T/C: 96 % of control
dose: 1.56 mg/kg/injection, schedule: Q01DX009 (ip), vehicle: saline
  T/C: 102 % of control
dose: 3.12 mg/kg/injection, schedule: Q01DX009 (ip), vehicle: saline
  T/C: 86 % of control
[12]
  T/C: 95 % of control
dose: 100.0 mg/kg/injection, schedule: Q04DX003 (ip), vehicle: saline
  T/C: 113 % of control

## O=C(NC(=S)Nc1ccccc1C(=O)O)c1ccccc1
[11]
  T/C: 104 % of control
[2]
  T/C: 100 % of control
[4]
  T/C: 90 % of control

## COc1cccc2c1CCC1C2CC=C2CC3(CCC21C)OCCO3 (stereo not drawn)
dose: 50.0 mg/kg/injection, schedule: Q04DX003 (sc), vehicle: steriod suspending solution
  T/C: 100 % of control
dose: 100.0 mg/kg/injection, schedule: Q04DX003 (sc), vehicle: steriod suspending solution
  T/C: 104 % of control
dose: 200.0 mg/kg/injection, schedule: Q04DX003 (sc), vehicle: steriod suspending solution
  T/C: 91 % of control
dose: 400.0 mg/kg/injection, schedule: Q04DX003 (sc), vehicle: steriod suspending solution
  T/C: 100 % of control

## OC(Cc1nc(-c2ccccc2)c(-c2ccccc2)s1)(C(F)(F)F)C(F)(F)F
[2]
  T/C: 100 % of control
[4]
  T/C: 104 % of control
[5]
  T/C: 100 % of control

## CC[As](=O)(O)CC
dose: 50.0 mg/kg/injection, schedule: Q01DX009 (ip), vehicle: saline
  T/C: 103 % of control
[12]
  T/C: 100 % of control
dose: 100.0 mg/kg/injection, schedule: Q01DX009 (ip), vehicle: saline
  T/C: 100 % of control and 108 % of control
dose: 132.0 mg/kg/injection, schedule: Q01DX009 (ip), vehicle: saline
  T/C: 95 % of control
dose: 200.0 mg/kg/injection, schedule: Q04DX003 (ip), vehicle: saline
  T/C: 108 % of control

## Oc1c(Cl)cc(Cl)cc1C1N=NC2=C(CCCC2)N1O (stereo not drawn)
[6]
  T/C: 106 % of control
[7]
  T/C: 88 % of control
[3]
  T/C: 93 % of control

## Cc1nc[nH]c1[N+](=O)[O-]
[8]
  T/C: 100 % of control
[7]
  T/C: 86 % of control

## O=CNc1ccc(C(=O)O)cc1
[2]
  T/C: 100 % of control
[4]
  T/C: 104 % of control
[5]
  T/C: 91 % of control

## CCCCCCOP(=O)(CCCCCC)OCCCCCC
dose: 25.0 mg/kg/injection, schedule: Q01DX009 (ip), vehicle: Klucel (hydroxypropylcellulose) (HPC)
  T/C: 108 % of control
[9]
  T/C: 100 % of control
dose: 50.0 mg/kg/injection, schedule: Q01DX009 (ip), vehicle: Klucel (hydroxypropylcellulose) (HPC)
  T/C: 104 % of control
dose: 50.0 mg/kg/injection, schedule: Q04DX003 (ip), vehicle: Klucel (hydroxypropylcellulose) (HPC)
  T/C: 95 % of control
dose: 100.0 mg/kg/injection, schedule: Q01DX009 (ip), vehicle: Klucel (hydroxypropylcellulose) (HPC)
  T/C: 113 % of control
dose: 100.0 mg/kg/injection, schedule: Q04DX003 (ip), vehicle: Klucel (hydroxypropylcellulose) (HPC)
  T/C: 100 % of control

## Cc1cc(=O)c2cc(N)ccc2[nH]1
dose: 25.0 mg/kg/injection, schedule: Q01DX009 (ip), vehicle: water
  T/C: 110 % of control
dose: 50.0 mg/kg/injection, schedule: Q01DX009 (ip), vehicle: water
  T/C: 94 % of control
[1]
  T/C: 102 % of control
dose: 100.0 mg/kg/injection, schedule: Q01DX009 (ip), vehicle: water
  T/C: 91 % of control
dose: 100.0 mg/kg/injection, schedule: Q04DX003 (ip), vehicle: water
  T/C: 106 % of control
dose: 200.0 mg/kg/injection, schedule: Q01DX009 (ip), vehicle: water
  T/C: 119 % of control
dose: 200.0 mg/kg/injection, schedule: Q04DX003 (ip), vehicle: water
  T/C: 113 % of control
dose: 400.0 mg/kg/injection, schedule: Q01DX009 (ip), vehicle: water
  T/C: 92 % of control
dose: 400.0 mg/kg/injection, schedule: Q04DX003 (ip), vehicle: water
  T/C: 103 % of control

## CN(Cc1cnc2nc(N)nc(N)c2n1)c1ccc(C(=O)NC(CCC(=O)O)C(=O)O)cc1Br (stereo not drawn)
dose: 0.35 mg/kg/injection, schedule: Q01DX009 (ip), vehicle: saline
  T/C: 231 % of control
dose: 0.7 mg/kg/injection, schedule: Q01DX009 (ip), vehicle: saline
  T/C: 259 % of control
dose: 13.2 mg/kg/injection, schedule: Q04DX003 (ip), vehicle: saline with Tween-80
  T/C: 250 % of control

## FC(F)(F)c1ccc2c(c1)N(CCCN1CCN(CCOc3ccccc3)CC1)c1ccccc1S2
dose: 6.25 mg/kg/injection, schedule: Q04DX003 (ip), vehicle: saline with Tween-80
  T/C: 96 % of control and 115 % of control
[10]
  T/C: 93 % of control and 115 % of control
dose: 25.0 mg/kg/injection, schedule: Q04DX003 (ip), vehicle: saline with Tween-80
  T/C: 114 % of control and 122 % of control

## CCOC(=O)C(C1=NC(C)(C)CC(C)O1)C1CCCCC1 (stereo not drawn)
dose: 50.0 mg/kg/injection, schedule: Q01DX001 (ip), vehicle: saline sonified
  T/C: 120 % of control
dose: 100.0 mg/kg/injection, schedule: Q01DX001 (ip), vehicle: saline sonified
  T/C: 110 % of control
dose: 200.0 mg/kg/injection, schedule: Q01DX001 (ip), vehicle: saline sonified
  T/C: 105 % of control

## Nc1ncc(Cl)c2ccccc12
dose: 25.0 mg/kg/injection, schedule: Q01DX005 (ip), vehicle: saline with Tween-80
  T/C: 89 % of control
